Laboratory results: patent publication US9493490B1, “Boron-containing small molecules” (Anacor Pharmaceuticals, Inc., priority 2013, dated 2016)
Read-outs that look alike come from different tables or passages of the source.

How the values were obtained:
[1] = test system: TNF-a secretion from LPS stimulated hPBMC; test: Inhibition of TNF-a secretion from LPS stimulated hPBMC; format: cell-based, human; conditions: LPS for 24 hours
Method: Measurement of the inhibition of cytokine secretion from stimulated human peripheral blood mononuclear cells by drugs was performed as described in Dong C. et al., J Pharmacol Exp Ther. 2013 February; 344(2):436-46; and Akama T. et al., Bioorg Med Chem Lett. 2013 Mar. 15; 23(6):1680-3. Briefly PBMC were incubated with drug, and stimulators; LPS for 24 hours to release TNF-α, and IL-6; PHA for 24 hours, to release IL-2 and IFN-γ, and PHA for 48 hours, to release IL-5 and IL-13. The cell culture supernatants were collected for cytokine determinations using Cisbio HTRF cytokine determination kits. Compounds were prepared using an eight point 1:10 dilution series starting at 10 or 100 uM; the resulting dose-response curves were fit to the four parameter sigmoid equation.

ROCK1 [2] = molecular target: T1, ROCK1 (Homo sapiens (Human), UniProt Q13464); test: Kinase binding panel (KINOMEscan), ROCK1; conditions: table under Kinase Binding Panel
Method: (§1) Kinase inhibition potency was measured using KINOMEscan™ technology across 402 human kinases [Fabian et al., Nat Biotechnol. 2005 March; 23(3):329-36] (DiscoverRx, Inc., (Fremont, Calif.)). The assay is based on a competition binding assay which quantitatively measures the ability of a compound to compete with an immobilized, active-site directed ligand. […] 2008 January; 26(1):127-32; Fabian et al., Nat Biotechnol. 2005 March; 23(3):329-36]. The assay is performed by combining three components: DNA-tagged kinase; immobilized ligand; and a test compound. Binding reactions were assembled by combining, for 1 hr at room temperature, kinases, liganded affinity beads, and test compounds in binding buffer (20% SeaBlock, 0.17×PBS, 0.05% Tween-20, 6 mM DTT). The assay plates were washed and then re-suspended in elution buffer for 30 min. (PBS, 0.05% Tween 20, 0.5 μM non-biotinylated affinity ligand). The kinase concentration in the eluates was measured by qPCR.
Target sequence in this assay (Q13464 whole entry): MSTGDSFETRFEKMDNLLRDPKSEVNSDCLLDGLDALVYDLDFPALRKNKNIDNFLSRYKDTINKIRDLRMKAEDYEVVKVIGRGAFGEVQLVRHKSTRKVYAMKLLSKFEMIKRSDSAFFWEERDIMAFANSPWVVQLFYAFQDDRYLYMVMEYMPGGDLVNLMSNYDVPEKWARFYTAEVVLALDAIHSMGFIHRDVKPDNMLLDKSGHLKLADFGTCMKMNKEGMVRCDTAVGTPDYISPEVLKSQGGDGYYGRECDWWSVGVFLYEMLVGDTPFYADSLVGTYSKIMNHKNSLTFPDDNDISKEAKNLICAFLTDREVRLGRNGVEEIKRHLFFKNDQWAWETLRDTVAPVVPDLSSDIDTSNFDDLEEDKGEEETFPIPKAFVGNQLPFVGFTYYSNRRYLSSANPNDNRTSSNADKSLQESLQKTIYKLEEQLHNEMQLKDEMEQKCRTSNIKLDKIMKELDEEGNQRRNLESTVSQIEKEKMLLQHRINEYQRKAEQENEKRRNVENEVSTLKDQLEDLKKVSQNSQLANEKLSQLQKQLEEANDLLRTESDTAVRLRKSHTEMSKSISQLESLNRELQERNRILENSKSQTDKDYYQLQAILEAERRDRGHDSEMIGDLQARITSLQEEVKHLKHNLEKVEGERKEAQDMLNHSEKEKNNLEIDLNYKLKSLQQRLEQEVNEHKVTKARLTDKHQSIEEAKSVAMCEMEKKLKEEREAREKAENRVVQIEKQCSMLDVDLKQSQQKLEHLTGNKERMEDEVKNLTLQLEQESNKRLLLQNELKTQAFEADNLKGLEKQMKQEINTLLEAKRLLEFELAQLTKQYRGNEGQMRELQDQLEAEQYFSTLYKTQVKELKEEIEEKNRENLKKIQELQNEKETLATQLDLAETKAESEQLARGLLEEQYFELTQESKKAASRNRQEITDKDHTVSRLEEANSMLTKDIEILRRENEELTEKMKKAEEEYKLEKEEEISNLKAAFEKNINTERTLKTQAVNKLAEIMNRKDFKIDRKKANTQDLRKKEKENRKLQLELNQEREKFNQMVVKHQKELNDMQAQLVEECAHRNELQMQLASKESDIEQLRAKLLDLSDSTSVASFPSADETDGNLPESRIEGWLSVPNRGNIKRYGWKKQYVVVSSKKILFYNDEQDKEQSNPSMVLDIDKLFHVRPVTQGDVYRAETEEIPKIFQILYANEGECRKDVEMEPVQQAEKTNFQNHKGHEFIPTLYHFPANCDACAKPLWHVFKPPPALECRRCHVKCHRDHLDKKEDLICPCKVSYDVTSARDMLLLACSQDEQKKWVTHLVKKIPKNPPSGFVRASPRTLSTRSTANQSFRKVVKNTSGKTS

ROCK2 [3] = molecular target: T2, ROCK2 (Homo sapiens (Human), UniProt O75116); test: ROCK2 phosphorylation activity (Reaction Biology, radiometric); format: biochemical; conditions: for IC50: 10 uM ATP
Method: (§2) Phosphorylation of activity of ROCK1 and ROCK2 and those of other kinases, AKT1, GRK2, PKA, PKCa and RSK1 were performed by Reaction Biology (Malvern, Pa.) (Ma et al., 2008) The ROCK1 enzyme tested was GST[1-535] ROCK1 (Genbank, NP 005397), ROCK2 was GST[5-554] (Genbank, 3327051). For the kinase assay buffers contained 20 mM Hepes, 10 mM MgCl2, 2 mM DTT, 0.02 mg/mL BSA, 0.1% DMSO, 1 mM EGTA, 0.02% Brij-35, 10 uM ATP, [γP^33]-ATP and for ROCK enzymes, 20 uM long S6-peptide (32 amino acids length). Appropriate substrates and activation was applied for the other kinases tested. Each enzyme was preincubated with test compound for 15 min., and the reaction started by addition of ATP. Samples were incubated at room temperature for 120 min, and applied to P81 ion exchange paper and washed extensively; the radioactive content of the filters were determined. […] Selectivity ratio is the value for PKA/ROCK2.
Target sequence in this assay (O75116 5-554): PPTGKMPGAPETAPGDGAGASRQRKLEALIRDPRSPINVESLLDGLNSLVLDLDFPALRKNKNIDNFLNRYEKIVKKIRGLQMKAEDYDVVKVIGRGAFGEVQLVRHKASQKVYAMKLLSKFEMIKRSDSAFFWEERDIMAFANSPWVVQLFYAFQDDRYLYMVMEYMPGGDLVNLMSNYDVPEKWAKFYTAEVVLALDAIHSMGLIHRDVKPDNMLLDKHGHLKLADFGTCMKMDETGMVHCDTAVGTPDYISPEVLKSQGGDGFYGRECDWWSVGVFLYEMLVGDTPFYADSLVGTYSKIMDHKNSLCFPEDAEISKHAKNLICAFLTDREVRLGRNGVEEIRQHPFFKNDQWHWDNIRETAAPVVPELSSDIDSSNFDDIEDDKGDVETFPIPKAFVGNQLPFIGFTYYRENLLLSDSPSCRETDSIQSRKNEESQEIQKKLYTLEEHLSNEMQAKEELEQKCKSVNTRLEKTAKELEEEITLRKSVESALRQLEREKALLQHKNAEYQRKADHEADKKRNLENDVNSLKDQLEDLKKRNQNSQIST

PKCa = PKCa (Homo sapiens (Human), UniProt P17252); test: PKCa phosphorylation activity; format: biochemical; conditions: 10 uM ATP
Method: as §2

ROCK1 [4] = molecular target: T1, ROCK1; test: ROCK1 phosphorylation activity (Reaction Biology, radiometric); format: biochemical, H. sapiens
Method: as §2
Target sequence in this assay (Q13464 1-535): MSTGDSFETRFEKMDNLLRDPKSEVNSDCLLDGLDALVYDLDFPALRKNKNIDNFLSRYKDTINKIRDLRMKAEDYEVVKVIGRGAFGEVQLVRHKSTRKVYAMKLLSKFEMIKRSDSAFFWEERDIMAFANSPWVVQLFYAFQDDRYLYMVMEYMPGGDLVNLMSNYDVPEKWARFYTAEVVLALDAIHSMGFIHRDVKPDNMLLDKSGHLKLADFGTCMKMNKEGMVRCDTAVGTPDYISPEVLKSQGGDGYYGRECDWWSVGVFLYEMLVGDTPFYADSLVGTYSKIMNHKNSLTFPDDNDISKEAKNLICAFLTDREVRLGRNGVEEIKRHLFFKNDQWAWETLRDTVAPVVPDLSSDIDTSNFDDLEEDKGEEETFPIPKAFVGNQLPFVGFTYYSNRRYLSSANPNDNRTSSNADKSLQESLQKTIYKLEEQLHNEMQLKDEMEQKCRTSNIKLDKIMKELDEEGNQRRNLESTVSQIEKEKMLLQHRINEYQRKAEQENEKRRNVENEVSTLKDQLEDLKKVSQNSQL

PKA = PKA (Homo sapiens (Human), UniProt P17612); test: PKA phosphorylation activity; format: biochemical; conditions: 10 uM ATP
Method: as §2

GRK2 = GRK2 (Homo sapiens (Human), UniProt P25098); test: GRK2 phosphorylation activity; format: biochemical; conditions: 10 uM ATP
GRK2, sequence (P25098 whole entry, species assumed): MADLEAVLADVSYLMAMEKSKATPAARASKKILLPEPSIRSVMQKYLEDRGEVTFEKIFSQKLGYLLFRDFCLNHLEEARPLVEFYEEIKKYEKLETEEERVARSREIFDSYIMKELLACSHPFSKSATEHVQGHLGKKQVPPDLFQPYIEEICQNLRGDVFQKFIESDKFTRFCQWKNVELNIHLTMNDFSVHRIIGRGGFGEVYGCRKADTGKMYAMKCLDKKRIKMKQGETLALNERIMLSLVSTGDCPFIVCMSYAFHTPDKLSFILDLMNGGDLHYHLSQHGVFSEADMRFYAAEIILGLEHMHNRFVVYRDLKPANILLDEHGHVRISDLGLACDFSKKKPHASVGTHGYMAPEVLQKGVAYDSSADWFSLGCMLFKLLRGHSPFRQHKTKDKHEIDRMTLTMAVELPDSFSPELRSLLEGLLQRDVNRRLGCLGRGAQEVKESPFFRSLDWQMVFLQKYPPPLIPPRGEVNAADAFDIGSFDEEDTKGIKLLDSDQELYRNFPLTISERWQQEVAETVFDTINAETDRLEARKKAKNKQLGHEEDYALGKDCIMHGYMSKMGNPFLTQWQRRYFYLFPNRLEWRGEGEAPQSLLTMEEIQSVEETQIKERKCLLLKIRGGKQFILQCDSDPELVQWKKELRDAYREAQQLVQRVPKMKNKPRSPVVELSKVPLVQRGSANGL
Method: as §2

AKT1 = AKT1 (Homo sapiens (Human), UniProt P31749); test: AKT1 phosphorylation activity; format: biochemical; conditions: 10 uM ATP
AKT1, sequence (P31749 whole entry, species assumed): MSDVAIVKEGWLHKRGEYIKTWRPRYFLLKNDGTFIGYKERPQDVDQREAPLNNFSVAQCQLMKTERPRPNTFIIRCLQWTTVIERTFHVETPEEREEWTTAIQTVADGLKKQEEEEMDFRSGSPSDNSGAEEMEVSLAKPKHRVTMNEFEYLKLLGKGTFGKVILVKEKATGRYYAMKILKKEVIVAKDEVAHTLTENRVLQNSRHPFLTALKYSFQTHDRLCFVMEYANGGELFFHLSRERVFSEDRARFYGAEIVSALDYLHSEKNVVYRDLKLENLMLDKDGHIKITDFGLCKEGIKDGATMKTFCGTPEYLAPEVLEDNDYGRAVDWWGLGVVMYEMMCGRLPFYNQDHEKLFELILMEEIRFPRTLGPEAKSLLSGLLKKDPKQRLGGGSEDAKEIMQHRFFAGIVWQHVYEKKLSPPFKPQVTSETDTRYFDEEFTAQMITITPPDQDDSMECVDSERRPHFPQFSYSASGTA
Method: as §2

ROCK2 [5] = molecular target: T2, ROCK2; test: Kinase binding panel (KINOMEscan), ROCK2; conditions: table under Kinase Binding Panel
Method: as §1
Target sequence in this assay (O75116 whole entry): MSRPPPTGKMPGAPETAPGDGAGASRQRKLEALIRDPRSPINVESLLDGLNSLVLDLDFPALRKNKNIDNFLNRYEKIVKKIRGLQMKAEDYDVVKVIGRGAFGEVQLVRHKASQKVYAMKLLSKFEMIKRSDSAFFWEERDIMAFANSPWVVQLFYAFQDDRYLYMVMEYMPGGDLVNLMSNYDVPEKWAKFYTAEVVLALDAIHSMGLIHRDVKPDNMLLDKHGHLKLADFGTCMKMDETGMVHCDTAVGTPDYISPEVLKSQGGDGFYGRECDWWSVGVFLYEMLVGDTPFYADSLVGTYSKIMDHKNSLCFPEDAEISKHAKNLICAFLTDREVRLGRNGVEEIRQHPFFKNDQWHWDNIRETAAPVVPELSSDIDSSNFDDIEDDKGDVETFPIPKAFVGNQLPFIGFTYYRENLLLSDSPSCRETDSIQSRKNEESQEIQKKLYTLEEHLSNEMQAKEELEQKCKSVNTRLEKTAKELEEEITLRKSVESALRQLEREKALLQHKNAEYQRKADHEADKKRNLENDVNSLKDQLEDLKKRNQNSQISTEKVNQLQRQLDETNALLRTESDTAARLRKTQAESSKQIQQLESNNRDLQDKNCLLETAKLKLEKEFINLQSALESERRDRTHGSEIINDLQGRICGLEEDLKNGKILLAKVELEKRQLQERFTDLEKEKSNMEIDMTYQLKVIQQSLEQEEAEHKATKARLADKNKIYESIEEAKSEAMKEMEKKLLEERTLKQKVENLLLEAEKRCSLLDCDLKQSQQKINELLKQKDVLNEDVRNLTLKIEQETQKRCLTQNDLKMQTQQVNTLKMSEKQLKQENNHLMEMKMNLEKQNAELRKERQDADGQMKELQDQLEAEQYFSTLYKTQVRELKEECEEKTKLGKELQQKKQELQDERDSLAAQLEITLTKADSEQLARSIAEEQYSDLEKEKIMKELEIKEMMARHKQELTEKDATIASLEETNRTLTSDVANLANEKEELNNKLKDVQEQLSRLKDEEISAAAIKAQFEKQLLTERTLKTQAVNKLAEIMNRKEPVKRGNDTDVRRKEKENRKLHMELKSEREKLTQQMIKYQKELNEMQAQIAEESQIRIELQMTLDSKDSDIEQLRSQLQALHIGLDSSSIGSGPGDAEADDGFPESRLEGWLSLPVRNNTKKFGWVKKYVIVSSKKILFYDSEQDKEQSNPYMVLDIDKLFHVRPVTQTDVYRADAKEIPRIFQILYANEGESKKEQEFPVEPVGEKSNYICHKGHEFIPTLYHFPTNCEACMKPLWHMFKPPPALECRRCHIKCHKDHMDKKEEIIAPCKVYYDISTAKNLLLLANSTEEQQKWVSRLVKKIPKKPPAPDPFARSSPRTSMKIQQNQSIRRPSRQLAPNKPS

RSK1 = RSK1 (Homo sapiens (Human), UniProt Q15418); test: RSK1 phosphorylation activity; format: biochemical; conditions: 10 uM ATP
Method: as §2

[6] = test system: p-MYPT1 phosphorylation in PANC-1 cells; test: Intracellular MYPT1 phosphorylation assay in PANC-1 cells; format: cell-based, H. sapiens; conditions: Homo sapiens
Method: Intracellular MYPT1 phosphorylation assay used the procedures of Garton et al. with minor modifications (Garton et al. Methods Enzymol. 2008; 439:491-500). PANC-1 cells (ACTT, CRL-1469), 18×10^3/well, grown over night in DMEM medium supplemented with 4.5 g/L glucose, L-glutamine, sodium pyruvate and 10% FBS at 37° C. Compounds were applied to the cells for one hour (DMSO final 1%) and the cells were then lysed. Phosphorylated-MYPT1 was detected using plate immobilized anti-MYPT1 antibody (BD Biosciences, cat. 612165), anti-phospo-MYPT1([…]), US Biological, cat. M9925-08) and secondary HRP-conjugated goat anti-rabbit IgG antibody (Jackson Laboratories, cat. 111-035-003), phospho-MYPT1 was quantified using color formed by the tetramethylbenzidine (TMB) HRP substrate.

[7] = read-out: IC50: ROCK1: H. sapiens
[8] = read-out: Inhibition of hROCK1 Phosphorylation [IC50
[9] = PANC-1 cells, .0417 days (compounds applied for one hour), read-out: IC50: Inhib p-MYPT1 Phosphorylation in H. sapiens PANC-1 cells, .0417 days
[10] = 10 uM ATP, read-out: ROCK1 IC50

Cc1c(Oc2ccc(C(C)N)cc2F)ccc2c1B(O)OC2 (stereo not shown) [E, 6-(4-(1-aminoethyl)-2-fluorophenoxy)-7-methylbenzo[c][1,2]oxaborol-1(3H)-ol]
IC50 ([1]; Homo sapiens, 24 h): 5.4 µM | IC50 (ROCK1 [2]): 0.42 µM | SELECTIVITY RATIO (ROCK2 [3]; value for PKA/ROCK2): 24.74 | IC50 (PKCa): > 20 µM | IC50 (ROCK1 [4]; [7]): 0.42 µM | IC50 (ROCK1 [4]; [8]): 0.42 µM | IC50 (PKA): 6.09 µM | IC50 (GRK2): > 20 µM | IC50 (AKT1): 21.5 µM | IC50 (ROCK2 [5]): 0.25 µM | IC50 (RSK1): 8.31 µM | IC50 [6, 9]: 39.7 µM

CCc1c(Oc2ccc(CN)cc2Cl)ccc2c1B(O)OC2 [A, 6-(4-(Aminomethyl)-2-chlorophenoxy)-7-ethylbenzo[c][1,2]oxaborol-1(3H)-ol]
IC50 ([1]; Homo sapiens): 3.61 µM | IC50 (ROCK1 [2]): 0.29 µM | IC50 (ROCK1 [4]; [8]): 0.29 µM | IC50 (ROCK2 [5]): 0.25 µM

Cc1c(Oc2ccc(C(C)N)cc2F)ccc2c1B(O)OC2.Cl (single isomer, unassigned) [F]
IC50 [1]: 20.5 µM | IC50 (ROCK1 [2]): 0.54 µM | SELECTIVITY RATIO (ROCK2 [3]; value for PKA/ROCK2): 21.51 | IC50 (PKCa): > 20 µM | IC50 (ROCK1 [4]; [7]): 0.54 µM | IC50 (ROCK1 [4]; [8]): 0.54 µM | IC50 (PKA): 11 µM | IC50 (GRK2): > 20 µM | IC50 (AKT1): 44.1 µM | IC50 (ROCK2 [5]): 0.51 µM | IC50 (RSK1): 17.2 µM | IC50 [6, 9]: 56.4 µM

CC(C)c1c(Oc2ccc(CN)cc2Cl)ccc2c1B(O)OC2 [N, 6-(4-(aminomethyl)-2-chlorophenoxy)-7-isopropylbenzo[c][1,2]oxaborol-1 (3H)-ol]
IC50 ([1]; Homo sapiens): 5.63 µM | IC50 (ROCK1 [2]): 0.0596 µM | IC50 (ROCK2 [3]): 0.047 µM | SELECTIVITY RATIO (ROCK2 [3]; value for PKA/ROCK2): 1.17 | IC50 (PKCa): 10.8 µM | IC50 (ROCK1 [4]; [10]): 0.06 µM | IC50 (ROCK1 [4]; [8]): 0.596 µM | IC50 (PKA): 0.055 µM | IC50 (AKT1): 4.22 µM | IC50 (ROCK2 [5]): 0.0472 µM | IC50 (RSK1): 0.195 µM

Cc1c(Oc2ccc(C(C)N)cc2F)ccc2c1B(O)OC2 (single isomer, unassigned) [G]
IC50 [1]: 5.18 µM | IC50 (ROCK1 [2]): 0.17 µM | S[…] (ROCK2 [3]; value for PKA/ROCK2): 10.40 | IC50 (PKCa): 15.6 µM | IC50 (ROCK1 [4]; [7]): 0.17 µM | IC50 (ROCK1 [4]; [8]): 0.17 µM | IC50 (PKA): 1.79 µM | IC50 (GRK2): 13.9 µM | IC50 (AKT1): 10.9 µM | IC50 (ROCK2 [5]): 0.17 µM | IC50 (RSK1): 3.62 µM | IC50 ([6]; PANC-1, read-out: IC50: Inhib p-MYPT1 Phosphorylation in H. sapiens PANC-1 cells, .0417 days [uM]): 18.7 µM

Cc1c(Oc2cccc(CN)c2F)ccc2c1B(O)OC2 [M, 6-(3-(aminomethyl)-2-fluorophenoxy)-7-methylbenzo[c][1,2]oxaborol-1(3H)-ol]
IC50 (ROCK1 [2]): 0.247 µM | IC50 (ROCK2 [3]): 0.22 µM | SELECTIVITY RATIO (ROCK2 [3]; value for PKA/ROCK2): 15.65 | IC50 (PKCa): > 30 µM | IC50 (ROCK1 [4]; [10]): 0.25 µM | IC50 (ROCK1 [4]; [8]): 0.247 µM | IC50 (PKA): 3.38 µM | IC50 (GRK2): > 30 µM | IC50 (AKT1): > 30 µM | IC50 (ROCK2 [5]): 0.216 µM | IC50 (RSK1): 5.19 µM

Cc1c(Oc2ccc(CN)cc2F)ccc2c1B(O)OC2 [D, 6-(4-(aminomethyl)-2-fluorophenoxy)-7-methylbenzo[c][1,2]oxaborol-1(3H)-ol]
IC50 ([1]; Homo sapiens, 24 h): 12.3 µM | IC50 (ROCK1 [2]): 0.34 µM | SELECTIVITY RATIO (ROCK2 [3]; value for PKA/ROCK2): 16.29 | IC50 (PKCa): > 20 µM | IC50 (ROCK1 [4]; [7]): 0.34 µM | IC50 (ROCK1 [4]; [8]): 0.34 µM | IC50 (PKA): 4.06 µM | IC50 (GRK2): > 20 µM | IC50 (AKT1): 9.25 µM | IC50 (ROCK2 [5]): 0.25 µM | IC50 (RSK1): 5.01 µM | IC50 [6, 9]: 18.2 µM

CC(N)c1ccc(Oc2ccc3c(c2)B(O)OC3)c(F)c1.Cl (stereo not shown) [C, 6-(4-(1-aminoethyl)-2-fluorophenoxy)benzo[c][1,2]oxaborol-1(3H)-ol]
IC50 ([1]; Homo sapiens, 24 h): 12 µM | IC50 (ROCK1 [2]): 0.54 µM | SELECTIVITY RATIO (ROCK2 [3]; value for PKA/ROCK2): >111 | IC50 (PKCa): > 20 µM | IC50 (ROCK1 [4]; [7]): 0.54 µM | IC50 (ROCK1 [4]; [8]): 0.54 µM | IC50 (PKA): > 50 µM | IC50 (GRK2): > 20 µM | IC50 (AKT1): > 30 µM | IC50 (ROCK2 [5]): 0.45 µM | IC50 (RSK1): > 50 µM | IC50 [6, 9]: 48.1 µM

Cc1c(Oc2cccc(CNC(=O)OC(C)(C)C)c2F)ccc2c1B(O)OC2 [L, tert-butyl 2-fluoro-3-(1-hydroxy-7-methyl-1,3-dihydrobenzo[c][1,2]oxaborol-6-yloxy)benzylcarbamate]
IC50 (ROCK1 [2]): 0.72 µM | IC50 (ROCK2 [3]): 0.66 µM | SELECTIVITY RATIO (ROCK2 [3]; value for PKA/ROCK2): 11.87 | IC50 (PKCa): > 30 µM | IC50 (ROCK1 [4]; [8]): 0.72 µM | IC50 (PKA): 7.88 µM | IC50 (GRK2): > 30 µM | IC50 (AKT1): > 30 µM | IC50 (ROCK2 [5]): 0.664 µM | IC50 (RSK1): 25 µM

NCc1ccc(Oc2ccc3c(c2Cl)B(O)OC3)c(Cl)c1 [B, 6-(4-(aminomethyl)-2-chlorophenoxy)-7-chlorobenzo[c][1,2]oxaborol-1(3H)-ol]
IC50 ([1]; Homo sapiens): 99 µM | IC50 (ROCK1 [2]): 23 µM | IC50 (ROCK1 [4]; [8]): 11 µM | IC50 (ROCK2 [5]): 16 µM
